Activity calls are given as the source filed them. The calls are words filed in the database; no cut-off is given here.
How the values were obtained:
[1] = target: T1, Protein cereblon/Heat shock protein HSP 90-alpha/Heat shock protein HSP 90-beta (Homo sapiens) (UniProt P07900+P08238+Q96SW2); assay: Protac activity at CRBN/Hsp90 in human SiHa cells assessed as induction of Hsp90 degradation at 1 uM incubated for 2 hrs by Western blot analysis; type: cell-based
SiHa = assay: Antiproliferative activity against human SiHa cells assessed as reduction in cell viability incubated for 72 hrs by CCK-8 assay; type: functional, cell-based
[2] = target: T1, Protein cereblon/Heat shock protein HSP 90-alpha/Heat shock protein HSP 90-beta (Homo sapiens); assay: Protac activity at CRBN/Hsp90 in human SiHa cells assessed as induction of Hsp90 degradation at 1 uM incubated for 10 hrs by Western blot analysis; type: cell-based
[3] = target: T1, Protein cereblon/Heat shock protein HSP 90-alpha/Heat shock protein HSP 90-beta (Homo sapiens); assay: Protac activity at CRBN/Hsp90 in human SiHa cells assessed as induction of Hsp90 degradation (causing hook effect) at > 0.1 uM incubated for 10 hrs by Western blot analysis; type: cell-based
[4] = target: T2, von Hippel-Lindau disease tumor suppressor/Heat shock protein HSP 90-alpha/Heat shock protein HSP 90-beta (Homo sapiens) (UniProt P07900+P08238+P40337); assay: Protac activity at VHL/Hsp90 in human SiHa cells assessed as induction of Hsp90 degradation at 1 uM incubated for 10 hrs by Western blot analysis; type: cell-based
T2 sequence (P08238 whole entry, looked up, other chains not shown): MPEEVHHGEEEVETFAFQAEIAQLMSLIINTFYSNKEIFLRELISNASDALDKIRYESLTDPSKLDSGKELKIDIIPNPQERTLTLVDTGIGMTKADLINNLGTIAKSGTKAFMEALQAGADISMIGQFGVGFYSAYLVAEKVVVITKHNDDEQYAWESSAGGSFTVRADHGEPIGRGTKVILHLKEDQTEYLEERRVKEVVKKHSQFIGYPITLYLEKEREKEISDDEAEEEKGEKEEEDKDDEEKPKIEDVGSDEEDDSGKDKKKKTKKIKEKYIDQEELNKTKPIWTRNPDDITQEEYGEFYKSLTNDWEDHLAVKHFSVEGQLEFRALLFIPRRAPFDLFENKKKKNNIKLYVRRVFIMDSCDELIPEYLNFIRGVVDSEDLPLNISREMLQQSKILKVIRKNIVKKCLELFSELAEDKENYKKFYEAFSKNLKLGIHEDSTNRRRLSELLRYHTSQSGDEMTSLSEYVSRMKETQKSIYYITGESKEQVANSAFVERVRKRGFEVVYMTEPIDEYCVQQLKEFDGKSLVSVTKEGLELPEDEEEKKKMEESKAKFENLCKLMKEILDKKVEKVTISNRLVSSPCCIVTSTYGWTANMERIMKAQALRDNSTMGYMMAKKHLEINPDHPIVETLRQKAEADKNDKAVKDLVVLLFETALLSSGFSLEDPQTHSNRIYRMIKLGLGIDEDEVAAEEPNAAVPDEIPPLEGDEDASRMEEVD
T2 sequence (P40337 whole entry, looked up, other chains not shown): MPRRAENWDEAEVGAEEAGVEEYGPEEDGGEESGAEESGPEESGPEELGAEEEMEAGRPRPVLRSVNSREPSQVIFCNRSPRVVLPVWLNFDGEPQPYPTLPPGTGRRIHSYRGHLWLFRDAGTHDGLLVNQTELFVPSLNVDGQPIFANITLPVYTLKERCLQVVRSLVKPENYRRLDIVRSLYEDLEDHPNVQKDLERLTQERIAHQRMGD

[5] = target: T2, von Hippel-Lindau disease tumor suppressor/Heat shock protein HSP 90-alpha/Heat shock protein HSP 90-beta (Homo sapiens); assay: Protac activity at VHL/Hsp90 in human SiHa cells assessed as induction of Hsp90 degradation (causing hook effect) at > 0.1 uM incubated for 10 hrs by Western blot analysis; type: cell-based

SMILES	IC50 (SiHa)	Activity [2]	other results
CN1C(=O)CCC(N2Cc3c(NCCCCCCCC(=O)NCC(=O)O[C@H]4CC[C@H](Nc5cc(-n6nc(C(F)(F)F)c7c6CC(C)(C)CC7=O)ccc5C(N)=O)CC4)cccc3C2=O)C1=O (some centres not stated)			Activity [1]: inactive
CC1(C)CC(=O)c2c(C(F)(F)F)nn(-c3ccc(C(N)=O)c(N[C@H]4CC[C@H](OC(=O)CNC(=O)CCCNc5cccc6c5CN(C5CCC(=O)NC5=O)C6=O)CC4)c3)c2C1 (some centres not stated)	70 nM	Active	
CC1(C)CC(=O)c2c(C(F)(F)F)nn(-c3ccc(C(N)=O)c(N[C@H]4CC[C@H](OC(=O)CNC(=O)COCCOCCNc5cccc6c5C(=O)N(C5CCC(=O)NC5=O)C6=O)CC4)c3)c2C1 (some centres not stated)	40 nM	inactive	Activity [3]: inactive
Cc1ncsc1-c1ccc([C@H](C)NC(=O)[C@@H]2C[C@@H](O)CN2C(=O)[C@@H](NCCCCCC(=O)NCC(=O)O[C@H]2CC[C@H](Nc3cc(-n4nc(C(F)(F)F)c5c4CC(C)(C)CC5=O)ccc3C(N)=O)CC2)C(C)(C)C)cc1	660 nM		
CC1(C)CC(=O)c2c(C(F)(F)F)nn(-c3ccc(C(N)=O)c(NCCCNC(=O)CCCCCCCNc4cccc5c4CN(C4CCC(=O)NC4=O)C5=O)c3)c2C1 (configuration not stated)	5520 nM	inactive	
CC1(C)CC(=O)c2c(C(F)(F)F)nn(-c3ccc(C(N)=O)c(N[C@H]4CC[C@H](OC(=O)CN)CC4)c3)c2C1 [SNX 5422]	14 nM		
Cc1ncsc1-c1ccc([C@H](C)NC(=O)[C@@H]2C[C@@H](O)CN2C(=O)[C@@H](NCCOCCOCC(=O)NCC(=O)O[C@H]2CC[C@H](Nc3cc(-n4nc(C(F)(F)F)c5c4CC(C)(C)CC5=O)ccc3C(N)=O)CC2)C(C)(C)C)cc1	30 nM		Activity [4]: inactive; Activity [5]: inactive
CC1(C)CC(=O)c2c(C(F)(F)F)nn(-c3ccc(C(N)=O)c(NCCCNC(=O)CCCCCCCCCCNc4cccc5c4CN(C4CCC(=O)NC4=O)C5=O)c3)c2C1 (configuration not stated)	560 nM	inactive	
CC1(C)CC(=O)c2c(C(F)(F)F)nn(-c3ccc(C(N)=O)c(N[C@H]4CC[C@H](OC(=O)CNC(=O)CCCCNc5cccc6c5CN(C5CCC(=O)NC5=O)C6=O)CC4)c3)c2C1 (some centres not stated)	310 nM		
CC1(C)CC(=O)c2c(C(F)(F)F)nn(-c3ccc(C(N)=O)c(NCCCNC(=O)CCCCCCCCCNc4cccc5c4CN(C4CCC(=O)NC4=O)C5=O)c3)c2C1 (configuration not stated)	430 nM	inactive	
CC1(C)CC(=O)c2c(C(F)(F)F)nn(-c3ccc(C(N)=O)c(NCCCNC(=O)CCCCCNc4cccc5c4CN(C4CCC(=O)NC4=O)C5=O)c3)c2C1 (configuration not stated)	9610 nM	inactive	
CC1(C)CC(=O)c2c(C(F)(F)F)nn(-c3ccc(C(N)=O)c(N[C@H]4CC[C@H](OC(=O)CNC(=O)CCCCCNc5cccc6c5CN(C5CCC(=O)NC5=O)C6=O)CC4)c3)c2C1 (some centres not stated)	460 nM	Active	
CC1(C)CC(=O)c2c(C(F)(F)F)nn(-c3ccc(C(N)=O)c(N[C@H]4CC[C@H](OC(=O)CNC(=O)CCCCCCNc5cccc6c5CN(C5CCC(=O)NC5=O)C6=O)CC4)c3)c2C1 (some centres not stated)	240 nM	Active	
CC1(C)CC(=O)c2c(C(F)(F)F)nn(-c3ccc(C(N)=O)c(N[C@H]4CC[C@H](NCCCCCCCCCC(=O)Nc5cccc6c5CN(C5CCC(=O)NC5=O)C6=O)CC4)c3)c2C1 (some centres not stated)	5270 nM	inactive	
Cc1ncsc1-c1ccc([C@H](C)NC(=O)[C@@H]2C[C@@H](O)CN2C(=O)[C@@H](NCCCCCCCC(=O)NCC(=O)O[C@H]2CC[C@H](Nc3cc(-n4nc(C(F)(F)F)c5c4CC(C)(C)CC5=O)ccc3C(N)=O)CC2)C(C)(C)C)cc1	170 nM		Activity [4]: Active
CC1(C)CC(=O)c2c(C(F)(F)F)nn(-c3ccc(C(N)=O)c(NCCCNC(=O)COCCOCCNc4cccc5c4CN(C4CCC(=O)NC4=O)C5=O)c3)c2C1 (configuration not stated)	7300 nM	inactive	
CC1(C)CC(=O)c2c(C(F)(F)F)nn(-c3ccc(C(N)=O)c(N[C@H]4CC[C@H](NC(=O)CCCCCCCCCNc5cccc6c5CN(C5CCC(=O)NC5=O)C6=O)CC4)c3)c2C1 (some centres not stated)	190 nM	inactive	
Cc1ncsc1-c1ccc([C@H](C)NC(=O)[C@@H]2C[C@@H](O)CN2C(=O)[C@@H](NCCCCCCCCCC(=O)NCC(=O)O[C@H]2CC[C@H](Nc3cc(-n4nc(C(F)(F)F)c5c4CC(C)(C)CC5=O)ccc3C(N)=O)CC2)C(C)(C)C)cc1	230 nM		Activity [4]: Active
CC1(C)CC(=O)c2c(C(F)(F)F)nn(-c3ccc(C(N)=O)c(N[C@H]4CC[C@H](OC(=O)CNC(=O)CCCCCCCCCNc5cccc6c5CN(C5CCC(=O)NC5=O)C6=O)CC4)c3)c2C1 (some centres not stated)	140 nM		
CC1(C)CC(=O)c2c(C(F)(F)F)nn(-c3ccc(C(N)=O)c(N[C@H]4CC[C@H](NC(=O)CNC(=O)CCCCCCCCCNc5cccc6c5CN(C5CCC(=O)NC5=O)C6=O)CC4)c3)c2C1 (some centres not stated)	750 nM	inactive	
